From ChEMBL document CHEMBL1125773, “Analogues of oxybutynin. Synthesis and antimuscarinic and bladder activity of some substituted 7-amino-1-hydroxy-5-heptyn-2-ones and related compounds” (1991) come the findings set out here.

Assay [1] concerns Cavia porcellus. Briefly: Effect on in vivo functional detrusor muscle contraction strength using guinea pig model of cystometrogram. More on the design: species or system Muscle tissue.
The species entered for assay [2] is Cavia porcellus. As to the kind of experiment: Antimuscarinic effect determined by comparing ability to inhibit carbachol-induced guinea pig detrusor muscle contractions. The format is functional.
Assay [3] is filed under the species Cavia porcellus. Briefly: Duration of action at which functional detrusor muscle contraction strength was measured using guinea pig model of cystometrogram. More on the design: species or system Muscle tissue.

`CN(C)CC#CCCC(=O)[C@@](O)(c1ccccc1)C1CCCCC1` came in with a Potency in the assay with Cavia porcellus [1] of 3.6. The Kb in the assay listed under Cavia porcellus [2] came out at 209 nM. Also, the Duration in the assay filed under Cavia porcellus [3] is given as 88 min.

Molecule `CN(C)CC#CCCC(=O)C(O)(c1ccccc1)C12CCC(CC1)CC2` (stereo not drawn) showed a Potency with Cavia porcellus [1] of 4.4. In the assay listed under Cavia porcellus [2], this molecule yielded a Kb of 115 nM.

Molecule `CN(C)CC#CC(CO)C(O)(c1ccccc1)C1CCCCC1` (stereo not drawn) yielded a Potency in the assay with Cavia porcellus [1] of 7.38. Moreover, the Kb in the assay listed under Cavia porcellus [2] is recorded as 99.7 nM.

As to `CCN(CC)CC#CCCC(=O)C(O)(c1ccccc1)C1CC1` (stereo not drawn), in the assay on Cavia porcellus [1], the Potency is 0.98. In the assay filed under Cavia porcellus [2], this molecule displayed a Kb of 58 nM. This molecule also gave a Duration in the assay filed under Cavia porcellus [3] of 80 min.

For the molecule `CNCC#CCCC(=O)C(O)(c1ccccc1)C1CCCCC1` (stereo not drawn), the Potency in the assay with Cavia porcellus [1] was 0.48. In the assay listed under Cavia porcellus [2], this molecule yielded a Kb of 71.2 nM. This molecule also showed a Duration in the assay filed under Cavia porcellus [3] of 48 min.

Molecule `CCN(CC)CC#CCCC(=O)C(O)(c1ccccc1)c1ccccc1` returned a Kb in the assay listed under Cavia porcellus [2] of 70.7 nM.

For `CCNCC#CCCC(=O)C(O)(c1ccccc1)C1CC2CCC1C2` (stereo not drawn), the Potency in the assay on Cavia porcellus [1] was 1.1. This molecule also registered a Kb in the assay listed under Cavia porcellus [2] of 65 nM. Besides, the Duration in the assay listed under Cavia porcellus [3] is 165 min.

The molecule `CN(C)CC#CCCC(=O)C(O)(c1ccccc1)C1CC1` (stereo not drawn) showed a Potency in the assay on Cavia porcellus [1] of 0.48. In the assay listed under Cavia porcellus [2], this molecule gave a Kb of 35 nM. The molecule further yielded a Duration in the assay filed under Cavia porcellus [3] of 89 min.

`CCN(CC)CC#CCCC(=O)C(C)(O)c1ccccc1` (stereo not drawn) showed a Kb in the assay filed under Cavia porcellus [2] of 5200 nM.

Take `CCN(CC)CC#CCCC(=O)C(O)(c1ccccc1)C1CCCC1` (stereo not drawn): in the assay with Cavia porcellus [1], the Potency worked out at 3.1. The Kb in the assay filed under Cavia porcellus [2] is listed as 21 nM.

`CC(CC#CCN(C)C)C(=O)C(O)(c1ccccc1)C1CCCCC1` (stereo not drawn) showed a Potency in the assay on Cavia porcellus [1] of 2.1. The molecule further returned a Kb in the assay filed under Cavia porcellus [2] of 163 nM. The molecule further returned a Duration in the assay listed under Cavia porcellus [3] of 39 min.

As for `CN(C)CCCCCC(=O)C(O)(c1ccccc1)C1CCCCC1` (stereo not drawn), in the assay on Cavia porcellus [1], the Potency was determined as 1.27. Besides, in the assay filed under Cavia porcellus [2], the Kb is on record as 43 nM. The Duration in the assay filed under Cavia porcellus [3] was 294 min.

The molecule `CN(C)Cc1ccc(CCC(=O)C(O)(c2ccccc2)C2CCCCC2)cc1` (stereo not drawn) displayed a Kb in the assay filed under Cavia porcellus [2] of 1900 nM.

Regarding `CN(CC#CCCC(=O)C(O)(c1ccccc1)C1CCCCC1)CCc1ccccc1` (stereo not drawn), the Potency in the assay on Cavia porcellus [1] is recorded as above 10. This molecule gave a Kb in the assay filed under Cavia porcellus [2] of 551 nM.

For the molecule `CN(C)CC#CCCC(=O)C(O)(c1ccccc1)C1CCCCC1` (stereo not drawn), the Potency in the assay with Cavia porcellus [1] is reported as 0.48. Further, the Kb in the assay listed under Cavia porcellus [2] came out at 38.7 nM. The molecule further returned a Duration in the assay filed under Cavia porcellus [3] of 126 min.

Molecule `O=C(CCC#CCNCc1ccccc1)C(O)(c1ccccc1)C1CCCCC1` (stereo not drawn) had a Kb in the assay listed under Cavia porcellus [2] of 4200 nM.

Take `CN(C)CC#CCCC(=O)C(O)(c1ccccc1)c1ccccc1`: the Potency with Cavia porcellus [1] is listed as 0.59. In the assay listed under Cavia porcellus [2], this molecule yielded a Kb of 70.1 nM. In the assay filed under Cavia porcellus [3], the Duration was 45 min.

Regarding `CCNCC#CCCC(=O)C(O)(c1ccccc1)C1CC1` (stereo not drawn), the Potency in the assay with Cavia porcellus [1] was 1.1. The molecule further gave a Kb in the assay listed under Cavia porcellus [2] of 224 nM. The molecule also gave a Duration in the assay filed under Cavia porcellus [3] of 103 min.

In the assay on Cavia porcellus [1], `CC(C)C(O)(C(=O)CCC#CCN(C)C)c1ccccc1` (stereo not drawn) had a Potency of 0.48. Further, the Kb in the assay listed under Cavia porcellus [2] came out at 18.3 nM. Besides, the Duration in the assay listed under Cavia porcellus [3] is reported as 80 min.

In the assay listed under Cavia porcellus [2], `CN(C)CC#CCCC(=O)C(O)(c1ccccc1)C12C[C@H]3C[C@@H](C1)C[C@@H](C2)C3` (stereo partly drawn) showed a Kb above 5000 nM.

Take `CN(C)CC#CCCC(=O)C(O)(c1ccccc1)C1(C)CC1` (stereo not drawn): in the assay on Cavia porcellus [1], the Potency came out at 0.28. Moreover, the Kb in the assay listed under Cavia porcellus [2] was 24 nM. In the assay filed under Cavia porcellus [3], the Duration amounted to 80 min.

Regarding `CN(C)CC#CCCC(=O)C(O)(c1ccccc1)C1CCCC1` (stereo not drawn), the Potency in the assay on Cavia porcellus [1] was 0.33. For the same molecule, the Kb in the assay filed under Cavia porcellus [2] came out at 2 nM. Besides, the Duration in the assay filed under Cavia porcellus [3] came to 98 min.

In the assay with Cavia porcellus [1], `CCNCC#CCCC(=O)C(O)(c1ccc(F)cc1)C1CCCCC1` (stereo not drawn) came in with a Potency of 1.8. Moreover, the Kb in the assay filed under Cavia porcellus [2] is listed as 504 nM. Moreover, the Duration in the assay filed under Cavia porcellus [3] is on record as 116 min.

In the assay on Cavia porcellus [1], `CC(C)N(C)CC#CCCC(=O)C(O)(c1ccccc1)C1CCCCC1` (stereo not drawn) displayed a Potency of 4.2. In addition, the Kb in the assay filed under Cavia porcellus [2] stood at 267 nM. Also, in the assay filed under Cavia porcellus [3], the Duration is given as 41 min.

Turning to `CCN(C)CC#CCCC(=O)C(O)(c1ccccc1)C1CCC1` (stereo not drawn), the Potency in the assay with Cavia porcellus [1] is recorded as 0.86. The Kb in the assay listed under Cavia porcellus [2] is reported as 7.5 nM. For the same molecule, in the assay filed under Cavia porcellus [3], the Duration was found to be 168 min.

`CN(CC#CCCC(=O)C(O)(c1ccccc1)C1CCCCC1)CCO` (stereo not drawn) came in with a Kb in the assay filed under Cavia porcellus [2] of 257 nM.

For `CC(C)N(CC#CCCC(=O)C(O)(c1ccccc1)C1CCCCC1)C(C)C` (stereo not drawn), the Potency with Cavia porcellus [1] is on record as 5.3. Also, in the assay listed under Cavia porcellus [2], the Kb worked out at 260 nM. In the assay listed under Cavia porcellus [3], this molecule displayed a Duration of 32 min.

Take `CCCCN(CC#CCCC(=O)C(O)(c1ccccc1)C1CCCCC1)CCCC` (stereo not drawn): the Kb in the assay listed under Cavia porcellus [2] was above 5000 nM.

For `CN(C)CC#CCCC(=O)[C@](O)(c1ccccc1)C1CCCCC1`, the Potency in the assay on Cavia porcellus [1] was found to be 0.19. The molecule also came in with a Kb in the assay filed under Cavia porcellus [2] of 17 nM. The molecule further returned a Duration in the assay filed under Cavia porcellus [3] of 257 min.

In the assay on Cavia porcellus [1], `CCNCC#CCCC(=O)C(O)(c1ccccc1)C1CCCCC1` (stereo not drawn) registered a Potency of 0.98. The same molecule came in with a Kb in the assay listed under Cavia porcellus [2] of 232 nM. In the assay listed under Cavia porcellus [3], the Duration is 85 min.

`CN(C)CC#CCCC(=O)C(O)(c1ccccc1)C1CCC1` (stereo in doubt; (-)-14b) gave a Potency with Cavia porcellus [1] of 2.5. Further, in the assay listed under Cavia porcellus [2], the Kb was found to be 149 nM. The same molecule registered a Duration in the assay listed under Cavia porcellus [3] of 40 min.

With `CN(C)CC#CCCC(=O)C(O)(c1ccccc1)C1CCC1` (single isomer, unassigned; (+)), the Potency with Cavia porcellus [1] is on record as 0.06. In addition, in the assay filed under Cavia porcellus [2], the Kb turned out to be 6.2 nM. In the assay filed under Cavia porcellus [3], this molecule displayed a Duration of 88 min.

As for `CCN(CC)CC#CCCC(O)C(O)(c1ccccc1)C1CCCCC1` (stereo not drawn), the Potency in the assay on Cavia porcellus [1] is given as 6.3. This molecule returned a Kb in the assay listed under Cavia porcellus [2] of 1600 nM. Moreover, the Duration in the assay filed under Cavia porcellus [3] stood at 123 min.

In the assay on Cavia porcellus [1], `CN(C)CC#CCCC(=O)C(O)(c1ccc(F)cc1)C1CCCCC1` (stereo not drawn) displayed a Potency of 0.9. The molecule also had a Kb in the assay listed under Cavia porcellus [2] of 67.7 nM. In addition, the Duration in the assay listed under Cavia porcellus [3] came out at 104 min.

As for `CN(C)CC#CCCC(=O)C(O[Si](C)(C)C)(c1ccccc1)C1CCCCC1` (stereo not drawn), the Kb in the assay listed under Cavia porcellus [2] was above 5000 nM.

In the assay listed under Cavia porcellus [2], `NCC#CCCC(=O)C(O)(c1ccccc1)C1CCCCC1` (stereo not drawn) displayed a Kb of 2100 nM.

Take `CCN(C)CC#CCCC(=O)C(O)(c1ccccc1)C1CC1` (stereo not drawn): the Potency in the assay with Cavia porcellus [1] turned out to be 1.3. For the same molecule, the Kb in the assay filed under Cavia porcellus [2] was found to be 241 nM. In the assay listed under Cavia porcellus [3], this molecule had a Duration of 127 min.

Regarding `CCNCC#CCCC(=O)C(O)(c1ccccc1)C1CCC1` (stereo not drawn), the Potency in the assay with Cavia porcellus [1] is 1.1. In addition, the Kb in the assay filed under Cavia porcellus [2] turned out to be 224 nM. In the assay listed under Cavia porcellus [3], this molecule came in with a Duration of 103 min.

With `CCNCC#CCCC(=O)C(O)(c1ccccc1)c1ccccc1`, the Potency in the assay with Cavia porcellus [1] came out at 1.5. The molecule further registered a Kb in the assay filed under Cavia porcellus [2] of 200 nM. Moreover, in the assay listed under Cavia porcellus [3], the Duration is reported as 54 min.

Regarding `CCN(C)CC#CCCC(=O)C(O)(c1ccccc1)c1ccccc1`, the Potency in the assay with Cavia porcellus [1] is 0.9. Besides, the Kb in the assay filed under Cavia porcellus [2] stood at 75.4 nM. The Duration in the assay filed under Cavia porcellus [3] is recorded as 69 min.

For the molecule `CCN(CC)CC#CCCC(=O)C(O)(c1ccccc1)C1CCCCC1` (stereo not drawn), the Potency in the assay with Cavia porcellus [1] is given as 2.8. Also, in the assay listed under Cavia porcellus [2], the Kb was 175 nM. In the assay listed under Cavia porcellus [3], this molecule came in with a Duration of 30 min.

`CN(C)CC#CCCC(=O)C(O)(c1ccccc1)C1CC2CCC1C2` (stereo not drawn) yielded a Potency in the assay with Cavia porcellus [1] of 0.9. The same molecule registered a Kb in the assay listed under Cavia porcellus [2] of 90 nM. Further, the Duration in the assay listed under Cavia porcellus [3] was 242 min.

On to `CN(C)CC#CCCC(=O)C(O)(C1CCCCC1)C1CCCCC1`, for which, in the assay on Cavia porcellus [1], the Potency stood at 15.3. For the same molecule, the Kb in the assay listed under Cavia porcellus [2] came out at 169 nM.

In the assay on Cavia porcellus [1], `CCN(C)CC#CCCC(=O)C(O)(c1ccccc1)C1CCCCC1` (stereo not drawn) gave a Potency of 0.45. The same molecule registered a Kb in the assay filed under Cavia porcellus [2] of 37 nM. In the assay listed under Cavia porcellus [3], this molecule yielded a Duration of 39 min.

On to `CCN(CC#CCCC(=O)C(O)(c1ccccc1)C1CCCCC1)C(C)C` (stereo not drawn), for which the Potency in the assay with Cavia porcellus [1] was found to be 3.3. This molecule had a Kb in the assay filed under Cavia porcellus [2] of 217 nM. The molecule further gave a Duration in the assay listed under Cavia porcellus [3] of 23 min.

The molecule `CC(C)NCC#CCCC(=O)C(O)(c1ccccc1)C1CCCCC1` (stereo not drawn) registered a Potency in the assay on Cavia porcellus [1] of 2.1. The molecule also returned a Kb in the assay filed under Cavia porcellus [2] of 292 nM. The same molecule displayed a Duration in the assay filed under Cavia porcellus [3] of 35 min.

`CCCCN(CC#CCCC(=O)C(O)(c1ccccc1)C1CCCCC1)CCC` (stereo not drawn) came in with a Potency with Cavia porcellus [1] of 2.6. The molecule further gave a Kb in the assay listed under Cavia porcellus [2] of 142 nM. The molecule further showed a Duration in the assay listed under Cavia porcellus [3] of 74 min.

Turning to `CC(C)CC(O)(C(=O)CCC#CCN(C)C)c1ccccc1` (stereo not drawn), the Potency in the assay with Cavia porcellus [1] is listed as 4.1. The same molecule returned a Kb in the assay listed under Cavia porcellus [2] of 30.5 nM.

`CN(C)CC#CCCC(=O)C(O)(c1ccccc1)C1CCC1` (stereo in doubt; 14b): the Potency with Cavia porcellus [1] worked out at 0.12. In the assay filed under Cavia porcellus [2], this molecule had a Kb of 4.9 nM. For the same molecule, in the assay filed under Cavia porcellus [3], the Duration is listed as 116 min.
